Test results reported in the supplement of paper PMC10307832.

Tests used:
Assay in all cases: relative viability (nuclei count vs DMSO), 5 days (fraction); higher = more cells survive
[1] = compound: CCCS(=O)(=O)Nc1ccc(F)c(C(=O)c2c[nH]c3ncc(-c4ccc(Cl)cc4)cc23)c1F [Vemurafenib] + CS(=O)(=O)CCNCc1ccc(-c2ccc3ncnc(Nc4ccc(OCc5cccc(F)c5)c(Cl)c4)c3c2)o1 [Lapatinib] (partner 2 µM)
In short: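 Relative viability equals treated-well nuclei counts divided by vehicle-well nuclei counts. Counts came from 4× images of lung cancer cell lines grown in 1536-well plates for 5 days after pin-tool dosing on the day after seeding. Dosing used one drug alone or a fixed anchor-drug dose plus five library-drug doses (not always all listed) in √10 steps, and values are medians of duplicate plates.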

[2] = compound: Cc1nc(NC(=O)N2CCC[C@H]2C(N)=O)sc1-c1ccnc(C(C)(C)C(F)(F)F)c1 [Alpelisib]
In short: (§1)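 Following overnight incubation at 37 °C, lung cancer cell lines in 1536-well plates were pinned with five library-drug doses (not always all listed) in √10 steps on vehicle-anchored plates. The cells then spent 5 days without medium change before a combined fix, permeabilisation and Hoechst stain, 4× imaging and MetaXpress nuclear counts. Viability is the treated-to-vehicle ratio of nuclei, taken as the median across plates. Only plates with control CV below 25% and at least one doubling passed.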

[3] = compound: COc1cccc2cc(-c3nc([C@H]4CC[C@H](C(=O)O)CC4)n4ncnc(N)c34)[nH]c12 [OSI-027]
In short: as §1

[4] = compound: CCCS(=O)(=O)Nc1ccc(F)c(C(=O)c2c[nH]c3ncc(-c4ccc(Cl)cc4)cc23)c1F [Vemurafenib]
In short: as §1

## NCI-H1437
[1]; first compound 0.03162 µM
  relative viability: 0.748
[1]; first compound 0.1 µM
  relative viability: 0.793
[1]; first compound 0.3162 µM
  relative viability: 0.698
[1]; first compound 1 µM
  relative viability: 0.876
[2]; 0.04 µM
  relative viability: 1
[2]; 0.1265 µM
  relative viability: 0.948
[2]; 0.4 µM
  relative viability: 1.06
[2]; 1.265 µM
  relative viability: 0.864
[2]; 2 µM, anchor plate
  relative viability: 0.965
[2]; 4 µM
  relative viability: 0.89
[3]; 0.01 µM
  relative viability: 1
[3]; 0.03162 µM
  relative viability: 0.921
[3]; 0.1 µM
  relative viability: 1.01
[3]; 0.3162 µM
  relative viability: 0.914
[3]; 0.5 µM, anchor plate
  relative viability: 0.881
[3]; 1 µM
  relative viability: 0.565
[4]; 0.03162 µM
  relative viability: 0.904
[4]; 0.1 µM
  relative viability: 0.958
[4]; 0.3162 µM
  relative viability: 0.974
[4]; 1 µM
  relative viability: 1.05

## NCI-H647
[1]; first compound 0.03162 µM
  relative viability: 0.951
[1]; first compound 0.1 µM
  relative viability: 1.06
[1]; first compound 0.3162 µM
  relative viability: 0.852
[1]; first compound 1 µM
  relative viability: 0.949
[2]; 0.04 µM
  relative viability: 0.917
[2]; 0.1265 µM
  relative viability: 0.925
[2]; 0.4 µM
  relative viability: 1.06
[2]; 1.265 µM
  relative viability: 0.757
[2]; 2 µM, anchor plate
  relative viability: 1.18
[2]; 4 µM
  relative viability: 0.832
[3]; 0.01 µM
  relative viability: 0.943
[3]; 0.03162 µM
  relative viability: 0.889
[3]; 0.1 µM
  relative viability: 0.892
[3]; 0.3162 µM
  relative viability: 0.705
[3]; 0.5 µM, anchor plate
  relative viability: 0.654
[3]; 1 µM
  relative viability: 0.427
[4]; 0.03162 µM
  relative viability: 0.913
[4]; 0.1 µM
  relative viability: 0.925
[4]; 0.3162 µM
  relative viability: 0.655
[4]; 1 µM
  relative viability: 0.942

## A549
[1]; first compound 0.03162 µM
  relative viability: 0.902
[1]; first compound 0.1 µM
  relative viability: 0.964
[1]; first compound 0.3162 µM
  relative viability: 1.06
[1]; first compound 1 µM
  relative viability: 1.07
[2]; 0.04 µM
  relative viability: 0.905
[2]; 0.1265 µM
  relative viability: 0.877
[2]; 0.4 µM
  relative viability: 0.953
[2]; 1.265 µM
  relative viability: 0.774
[2]; 2 µM, anchor plate
  relative viability: 0.84
[2]; 4 µM
  relative viability: 0.538
[3]; 0.01 µM
  relative viability: 0.95
[3]; 0.03162 µM
  relative viability: 0.839
[3]; 0.1 µM
  relative viability: 0.94
[3]; 0.3162 µM
  relative viability: 0.788
[3]; 1 µM
  relative viability: 0.34
[4]; 0.03162 µM
  relative viability: 0.939
[4]; 0.1 µM
  relative viability: 0.942
[4]; 0.3162 µM
  relative viability: 0.945
[4]; 1 µM
  relative viability: 0.963

## HCC-78
[1]; first compound 0.03162 µM
  relative viability: 0.725
[1]; first compound 0.1 µM
  relative viability: 0.832
[1]; first compound 0.3162 µM
  relative viability: 0.982
[1]; first compound 1 µM
  relative viability: 0.386
[2]; 0.04 µM
  relative viability: 0.93
[2]; 0.1265 µM
  relative viability: 0.798
[2]; 0.4 µM
  relative viability: 0.897
[2]; 1.265 µM
  relative viability: 0.664
[2]; 2 µM, anchor plate
  relative viability: 0.378
[2]; 4 µM
  relative viability: 0.655
[3]; 0.01 µM
  relative viability: 0.938
[3]; 0.03162 µM
  relative viability: 0.866
[3]; 0.1 µM
  relative viability: 0.832
[3]; 0.3162 µM
  relative viability: 0.727
[3]; 0.5 µM, anchor plate
  relative viability: 0.385
[3]; 1 µM
  relative viability: 0.501
[4]; 0.03162 µM
  relative viability: 0.93
[4]; 0.1 µM
  relative viability: 0.838
[4]; 0.3162 µM
  relative viability: 1.05
[4]; 1 µM
  relative viability: 0.964

## ABC-1
[1]; first compound 0.03162 µM
  relative viability: 1.19
[1]; first compound 0.1 µM
  relative viability: 0.991
[1]; first compound 0.3162 µM
  relative viability: 1.35
[1]; first compound 1 µM
  relative viability: 0.973
[2]; 0.04 µM
  relative viability: 1.13
[2]; 0.1265 µM
  relative viability: 0.77
[2]; 0.4 µM
  relative viability: 0.886
[2]; 1.265 µM
  relative viability: 0.662
[2]; 2 µM, anchor plate
  relative viability: 1.05
[2]; 4 µM
  relative viability: 0.608
[3]; 0.01 µM
  relative viability: 0.874
[3]; 0.03162 µM
  relative viability: 1.03
[3]; 0.1 µM
  relative viability: 0.825
[3]; 0.3162 µM
  relative viability: 0.585
[3]; 0.5 µM, anchor plate
  relative viability: 0.499
[3]; 1 µM
  relative viability: 0.547
[4]; 0.03162 µM
  relative viability: 0.808
[4]; 0.1 µM
  relative viability: 0.886
[4]; 0.3162 µM
  relative viability: 0.711
[4]; 1 µM
  relative viability: 0.945

## Calu-6
[1]; first compound 0.03162 µM
  relative viability: 1.02
[1]; first compound 0.1 µM
  relative viability: 1.06
[1]; first compound 0.3162 µM
  relative viability: 1.01
[1]; first compound 1 µM
  relative viability: 0.924
[2]; 0.04 µM
  relative viability: 0.981
[2]; 0.1265 µM
  relative viability: 0.976
[2]; 0.4 µM
  relative viability: 1.1
[2]; 1.265 µM
  relative viability: 0.941
[2]; 2 µM, anchor plate
  relative viability: 0.98
[2]; 4 µM
  relative viability: 0.922
[3]; 0.01 µM
  relative viability: 1.12
[3]; 0.03162 µM
  relative viability: 0.954
[3]; 0.1 µM
  relative viability: 1.03
[3]; 0.3162 µM
  relative viability: 0.907
[3]; 1 µM
  relative viability: 0.731
[4]; 0.03162 µM
  relative viability: 0.932
[4]; 0.1 µM
  relative viability: 0.956
[4]; 0.3162 µM
  relative viability: 0.849
[4]; 1 µM
  relative viability: 0.974
